Source: patent US20210063414A1, “METHODS FOR PREVENTING AND/OR TREATING BONE LOSS CONDITIONS BY MODULATING IRISIN” (Dana-Farber Cancer Institute, Inc., priority 2018, published 2021)

System: his-tag integrins
Assay: Irisin-integrin binding in presence of RGDS or control peptide, co-immunoprecipitation
Parameters: species or system human
Conditions: 100 nM flag-tag irisin, 5 nM his-tag integrins, 10 uM peptide, vs control RGD peptide
Procedure: 100 nM flag-tag irisin was incubated with 5 nM of indicated integrins with his-tag in the presence of RGDS peptide or its control peptide (10 uM). This was followed by immunoprecipitation using anti-his-tag agarose. Co-precipitated irisin was analyzed by immunoblot analysis with antibody against flag tag.
Certain materials and methods were used to generate the results described herein. For example, the data shown in FIG. 1A resulted from MLO-Y4 (an osteocyte-like cell line) cells treated with the indicated concentration of irisin and hydrogen peroxide for 4 hours. Cells were stained with Hoechst 33342 (ThermoFisher Scientific, catalog number H3570) and Eth-D1 (ThermoFisher Scientific, catalog number E1169) and analyzed to determine the percentage of cell death using ImageJ. […] Co-precipitated irisin was analyzed by immunoblot analysis against flag tag (Sigma Aldrich, catalog number A8592). The data shown in FIGS. 5A and 5B were generated from MLO-Y4 cells treated and analyzed as in the experiments used to generate the data shown in FIG. 2D, except that pre-treatment of 100 nM RGDS (FIG. 5A) or echistatin (R & D Systems Inc., catalog number 3202/100U) (FIG. 5B) for 10 minutes was performed before irisin treatment. […] Sclerostin mRNA level was analyzed by qPCR (FIG. 7A). […]

RGDS peptide: classical integrin competitive inhibitory peptide, commercially available form of the RGD peptide
effect on irisin binding to integrins: inhibited much of the irisin binding | effect on irisin binding to integrins (listed as RGDS): blocked
